From patent US20210292265A1, “CHALCONES AND DERIVATIVES FOR USE IN MEDICAMENTS AND NUTRACEUTICALS” (HLXTH B.V., priority 2018, published 2021)

Columns and labels:
MCAO rats = details: pretreatment once a day for 7 days, 2 h MCAO, 22 h reperfusion; cited from earlier work
mTOR = target: T1, mTOR (Homo sapiens, UniProt P42345); experiment: mTOR activity by phospho p70 S6K (Thr389) ELISA in PMA differentiated THP-1 cells; type: cell-based; details: LPS/ATP stimulated and PMA differentiated THP-1 cells; read-out: IC50 of mTOR inhibition (phospho p70 S6K)
T1 construct: PMA-differentiated THP-1 cells, 1.5×10^5 cells/well, 96-well format; endogenous in cells; host or cells: PMA-differentiated THP-1 cells
Experimental: (§1) Evaluation of the effect of test compounds on inflammasome induced IL-1β or IL-18 generation and mTOR or caspase-1 activity was performed using PMA-differentiated THP-1 cells stimulated with LPS (2 ng/ml, 4h (LPS (sigma, cat #L3012)) plus ATP (5 mM, 5 min. (Sigma, cat #A1852)). PMA-differentiated THP-1 cells untreated with LPS/ATP were used as control. PMA (phorbol 12-myristate 13-acetate) stimulation was done by adding 150 nM PMA to the cell culture for 24 hours. followed by 24 hours of incubation in culture medium and removal of non-adherent cells.
(§2) The cell lysates were collected accordingly the manufacturer's instructions for analysis of phospho p70 S6K (Thr389) (eBioscience, cat #85-86052) levels by ELISA, to determine the mTOR activity or to determine caspase-1 (R&D Systems cat #AF6215) levels by Western blot. As secondary antibody for the Western blot a HRP-conjugated anti-IG antibody (R&D Systems cat #HAF017) was used and immunoreactive bands were visualized by the Enhanced Chemiluminescence method (Thermo Scientific, Rockford, Ill.). All assays were performed accordingly to the respective manufacturers instructions.
(§3) PMA-differentiated THP-1 cells, 1.5×10^5 cells/well, 96-well format
1. Pre-treatment for 1 hour with experimental compounds. 2. LPS stimulation (2 ng/mL) for 4h of all conditions except unstimulated (LPS/ATP unstimulated) cells 3. […]

[1] = tested on: inflammasome induced IL-1β production; experiment: IL-1β secretion (ELISA) in LPS/ATP stimulated, PMA differentiated THP-1 cells; type: cell-based; details: for IC50: Homo sapiens, LPS (2 ng/ml, 4h) plus ATP (5 mM, 5 min), 1 hour pre-treatment, read-out: IC50 of inhibition of IL-1β secretion
Experimental: as §1
(§4) The supernatant was collected immediately after experimental procedures for measurement of IL-1β ELISA (R&D Systems, cat #DY201) or IL-18 ELISA (R&D Systems, cat #7620) levels.
as §3
(§5) 1. Pre-treatment for 1 hour with experimental compounds. 2. LPS stimulation (2 ng/mL) for 4h of all conditions except unstimulated (LPS/ATP unstimulated) cells 3. ATP (5 mM) stimulation for 5 minutes of all conditions except unstimulated (LPS/ATP unstimulated) cells 4. Material collection: Supernatant and cell lysates (snap frozen, stored at −80° C.)

[2] = tested on: 1K/DOCA/salt-treated mice; details: cited from earlier work
[3] = tested on: inflammasome induced caspase-1 production; experiment: Caspase-1 levels by Western blot in LPS/ATP stimulated, PMA differentiated THP-1 cells; type: cell-based
Experimental: as §1, §2
1. Pre-treatment for 1 hour with experimental compounds. 2. […]
LPS/ATP stimulated, PMA differentiated THP-1 cells were incubated with a compound of formula I and caspase-I formation was analyzed and compared to a control without the compound.

[4] = tested on: inflammasome induced IL-18 production; experiment: IL-18 secretion (ELISA) in LPS/ATP stimulated, PMA differentiated THP-1 cells; type: cell-based; details: dose dependent
Experimental: as §1, §4, §3, §5

[5] = tested on: myocardial ischemia reperfusion injury (MI/RI) rats; details: I/R rats, 2.5, 5 and 10 mg/kg, 30 min occlusion, 2 h reperfusion; cited from earlier work

O=C(/C=C/c1ccc(O)cc1)c1ccc(O)cc1O [Isoliquiritigenin]
cerebral infarct volume and edema (MCAO rats): significantly reduced
IC50 (mTOR): 174 µM
IC50 [1]: 11.9 µM

CC(C)(O)c1coc(S(=O)(=O)NC(=O)Nc2c3c(cc4c2CCC4)CCC3)c1 [MCC950]
effect on hypertension [2]: reversed hypertension

O=C(/C=C/c1ccccc1O)c1ccc(O)cc1O [2,2′,4′-trihydroxychalcone]
IC50 (mTOR): 98.8 µM
IC50 [1]: 6.1 µM
effect on caspase-1 production [3]: inhibits caspase-1 production
effect on secretion of IL-18 [4]: inhibits the secretion of IL-18

CO[C@H]1C[C@@H]2CC[C@@H](C)[C@@](O)(O2)C(=O)C(=O)N2CCCC[C@H]2C(=O)O[C@H]([C@H](C)C[C@@H]2CC[C@@H](O)[C@H](OC)C2)CC(=O)[C@H](C)/C=C(\C)[C@@H](O)[C@@H](OC)C(=O)[C@H](C)C[C@H](C)/C=C/C=C/C=C/1C [Rapamycin]
effect on production of IL-1β ([1]; LPS/ATP stimulated, Rapamycin 25, 50 and 100 nM): no effect

Oc1ccc(/C=C/c2cc(O)cc(O)c2)cc1 [Resveratrol, resveratrol]
IC50 [1]: 87.3 µM
infarct volume and myocardial fibrosis [5]: significantly reduced
